Common to all, as to test: NCI anticancer screen, dose series, 48 h
Test [1] relates to UACC-62 melanoma.
The subject of test [2] is SF-539 CNS.
For test [3], the system named is CAKI-1 renal.
Test [4] deals with SF-268 CNS.
For test [5], the system named is SK-MEL-28 melanoma.
The subject of test [6] is NCI-H23 lung.
The subject of test [7] is IGROV1 ovarian.
Test [8] deals with SK-MEL-5 melanoma.
Test [9] concerns BT-549 breast.
Test [10] has as its system T-47D breast.

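In this assay, cells in 96-well plates receive the compound at five concentrations for 48 hours. Endpoints are linearly interpolated between the surrounding concentrations. GI50: concentration for 50% inhibition of growth. The concentration for full growth arrest is given as TGI.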

With `Cc1ccc(NC(=O)C2C(=O)N(c3ccc(C)c(C)c3)C(=O)/C2=N\NC(N)=S)cc1C` (centres undefined), the TGI in test [1], in test [2], in test [3], in test [4], in [5] and in [6] was above 100 µM throughout. Also, the TGI in test [7] is above 100 µM.
As for `Cc1[nH]nc2c1C(=O)C=C(N(CCO)c1ccccc1)C2=O`, the TGI in test [1], in test [2], in [3], in test [8], in test [5] and in test [6] was above 100 µM each time. In test [7], this compound showed a TGI above 100 µM.
`CCCCN(CCCC)C(=O)C(=O)C(C)C(=O)CC` (centres undefined): the TGI in test [1], in test [2], in test [3], in [4], in test [5] and in test [6] was above 100 µM in each case. Further, the TGI in [7] was above 100 µM.
As to `CCCCCCNc1nc(N2CCOCC2)c2[nH]c(NCCCCCC)nc2n1`, the GI50 in test [9] is 1.66 µM; in [1], 1.63 µM; in test [2] it was 1.82 µM; in [3], 1.53 µM; in test [4] it was 1.78 µM; in test [8] it was 1.42 µM. For the same compound, the GI50 in test [5] is 1.65 µM; in [6], 1.35 µM. Further, the TGI came to 3.04 µM in test [9]; 3.12 µM in [1]; 3.33 µM in test [2]; 2.97 µM in test [3]; 3.44 µM in [4]; 2.72 µM in test [8]. Moreover, the TGI was 3.01 µM in test [5] and 2.63 µM in [6].
On to `Cc1nc(Nc2ccccc2)sc1C(=O)NNc1ccc([N+](=O)[O-])cc1[N+](=O)[O-]`, for which the TGI is above 100 µM in test [1]; above 100 µM in test [2]; above 100 µM in test [3]; above 100 µM in [4]; 68.5 µM in [8]; above 100 µM in test [5]. Further, the TGI in [6] is 44.2 µM; in test [7] it was above 100 µM.
Turning to `c1cc(-c2cn[nH]c2)cc(-c2cn[nH]c2)c1`, the TGI in [1] is 35.6 µM; in [2], 55.4 µM; in test [3] it was 83.9 µM; in [4], above 100 µM; in test [8], above 100 µM; in test [5] it was above 100 µM. The TGI in test [6] and in [7] was above 100 µM in each case.
With `CCc1cccc(C(C)CC)c1NC(=O)C(=O)C(CC(=O)Nc1ccc(Cl)c(Cl)c1)C(=O)OC` (centres undefined), the TGI is 18.9 µM in test [1]; above 100 µM in [2]; above 100 µM in [3]; above 100 µM in [4]; above 100 µM in [5]; above 100 µM in test [6]. Besides, the TGI in [7] was above 100 µM.
In the case of `CC1CCP(=O)(c2ccccc2)CC1` (centres undefined), the TGI in [1], in [2], in [3], in test [4], in test [8] and in test [5] was above 100 µM in each case. For the same compound, the TGI in test [6] and in test [7] was above 100 µM in each case.
In the case of `COc1ccc(C(=O)C(C(=O)C(=O)Nc2nccs2)c2ccc(OC)cc2)cc1` (centres undefined), the TGI in test [1], in test [2], in [3], in test [4], in [8] and in [5] was above 100 µM throughout. Besides, the TGI in [6] and in test [7] was above 100 µM throughout.
As for `N#C/C(N)=C(\C#N)N=Cc1csc2ccccc12`, the GI50 in test [1] was 28.2 µM; in test [2], 20.1 µM; in test [3], 43.3 µM; in test [8], 22.9 µM; in [5], 37.5 µM; in test [6], 11.5 µM. Moreover, the GI50 in [10] is 1.07 µM; in [7] it was 15.8 µM. Further, the TGI in test [1] was above 100 µM; in [2], 50.9 µM; in test [3], above 100 µM; in [8], above 100 µM; in test [5] it was above 100 µM; in test [6] it was 51.2 µM. The TGI in [10] was 28.5 µM; in test [7], 67.2 µM.
For the compound `O=C(O)/C(=C\c1ccccc1Cl)S(=O)(=O)c1ccccc1`, the TGI in test [1], in [2], in test [3], in test [4], in [8] and in [7] was above 100 µM throughout.
Take `N[C@@H]1CCCC[C@@H]1N.O=C([O-])CN(CP(=O)([O-])[O-])CP(=O)([O-])[O-].[Pt+2]`: the GI50 in test [1], in test [2], in test [3], in [4], in test [8] and in test [5] was above 100 µM in each case. The GI50 in test [6] and in test [7] was above 100 µM each time. Moreover, the TGI in test [1], in test [2], in [3], in [4], in [8] and in test [5] was above 100 µM in each case. Moreover, the TGI in test [6] and in [7] was above 100 µM in each case.
On to `Cc1cc(N(CCC#N)CCC#N)ccc1N=Nc1cccc(Cl)c1`, for which the TGI in [1], in test [2], in test [3], in [8], in test [5] and in [6] was above 100 µM in each case.
Take `C#C[C@H](CCCC)OC(=O)N[C@H](C)c1ccccc1`: the TGI in [1] was above 100 µM; in test [3], above 100 µM; in test [4], above 100 µM; in [8] it was 37 µM; in [5], above 100 µM; in [7], above 100 µM.
Turning to `BrC1=CC=C2NCCCCCCN=C3C=CC(Br)=CC=C3NCCCCCCN=C2C=C1`, the TGI in [1], in test [2], in [3], in test [4], in [8] and in test [5] was above 25.5 µM each time. For the same compound, the TGI in test [6] and in test [7] was above 25.5 µM throughout.

The values above are taken from PubChem BioAssay (NCI).
